What was measured:
[1] = tested on: cancer, cardiac and neuronal cell lines; assay: Categorisation of active ADPs as pro-/anti-apoptotic (Example 15); settings: criteria of Example 15
[2] = Effectiveness of ADPs (Example 1, Table 6; cell death assays of FIGS. 10-13); assay type: cell-based; settings: ADPs with N-terminal tumor penetrating peptide and C-terminal fluorescent tag; graded in words
Excerpt: FIGS. 10A-C show the sequences mapped, peptide blots, imaging to show expression and cell death assays for these three peptides. A) PPA-1 (PEPTIDE23) (SEQ ID NO:23), B) PPA4 (PEPTIDE19) (SEQ ID NO:19), C) PPA10 (PEPTIDE16 including FF at C-terminus) (SEQ ID NO:16).
FIGS. 11A-B show the sequences mapped, peptide blots, imaging to show expression and cell death assays for these HSP-70 peptides. A) PHA4 (PEPTIDE5) (SEQ ID NO:5), B) PHA5 (PEPTIDE13 plus C-terminal L) (SEQ IDS NO: 13).
FIGS. 12A-C show the sequences mapped, peptide blots, imaging to show expression and cell death assays for these p65 (RELA) peptides. A) PRA1 (PEPTIDE14) (SEQ ID NO:14), B) PRA8 (PEPTIDE8) (SEQ ID NO:8), C) PRA9 (SEQ ID Nos:33 and 37-45).
FIGS. 13A-D show the sequences mapped, peptide blots, imaging to show expression and cell death assays for these HSP-70 peptides. A) PAA1-1 (PEPTIDE11) (SEQ ID NO:11), B) PPA1-3 (PEPTIDE15) (SEQ ID NO:15), C) PAR1 (PEPTIDE19), D) Paint 1 (PEPTIDE7) (SEQ ID NO:7).
ADPs were first identified using Peptide SPOT analysis. Peptides were identified from AKIP1. PKAc, HSP-70 and p65 sequences. The identified ADPs were attached at the N-terminus to tumor penetrating peptide based on the CENDR rule (FIG. 9). A fluorescent tag was attached to the C-terminus for ease of visualization.
To test these ADPs, CRISPR based AKIP1 knock-out cell lines were generated in HEK 293 and glioblastoma cell lines. Further, all the isoforms of AKIP1 were reintroduced into the AKIP1 knock-out glioblastoma cell lines.

U87-MG cells = assay: Caspase-Glo 3/7 apoptotic assay; assay type: cell-based, human; settings: cut-off value at 20 over scrambled control with P Value <0.05%
Procedure: Caspase-Glo® 3/7 assays (Promega) were performed according to the manufacturer's protocol. Briefly, 15,000-20,000 cells were seeded in a 96 well white flat bottom plate. The peptide constructs were transfected in triplicates using Lipofectamine 3000. Twenty four hour post-transfection, the cells were equilibrated at room temperature and Caspase-Glo® 3/7 reagent was dispensed into each well and the luminescent signal was measured 30-60 mins incubation at room temperature. The blank reaction was used to measure background luminescence associated with the cell culture system and Caspase-Glo® 3/7 Reagent alone. The value for the blank reaction was subtracted from experimental values to obtain the relative luminescence values (RLU). The percentage change over the Scrambled control was calculated from the mean as follows: [(Mean peptide RLU-Mean Scr RLU)/Scr RLU*100]. The P value was calculated using the Student t Test.
The efficacy of the 25 disclosed peptides to cause apoptosis in the U87-MG cells was measured using Caspase-Glo® 3/7 Assay. For each of the peptides, the percentage change over the scrambled control was tabulated and a cut-off value at 20 with a P Value of <0.05%.

[3] = tested on: cancer, cardiac and neuronal cell lines; assay: Categorisation of active ADPs as pro-/anti-apoptotic (Example 15); settings: depending on cell type
Excerpt: 2) improved cell viability in cardiac or neuronal cell lines and decreased viability in at least 2 cancer cell lines.

Sequence | Pro-apoptotic (anti-angiogenic) category [1] | Effectiveness [2] | also measured
IMQDKLEKERNDAKNAVEEYVYEMRDKLSGEYEKFVSEDDRNSFTLKLEDTENWLY [PEPTIDE13] | Pro-apoptotic (anti-angiogenic) |  | 
KYYSSVPEEGGATHVYRYHRGESKLHM [PEPTIDE9] | Pro-apoptotic (anti-angiogenic) | High | 
DNCLAAAALNGVDRRSLQRSAKLALEVLERAKRR [PAint] |  | Moderate | 
FTDLASVONSEFQQLLNQ (FTDLASVDNSEFQQLLNQ) [PEPTIDE24] |  |  | apoptosis in U87-MG cells (in words) (U87-MG cells): very low apoptosis
GGSYQISEHAPEASQPAENISKDLYIEVYPGTYS [PEPTIDE7] | Pro-apoptotic (anti-angiogenic) | Low | 
IMQDKLEKERNDAKNAVEEYVYEMRDKLSGEYEKFVSEDDRNSFTLKLEDTENWL [PHA 5, PEPTIDE13 without the C-terminal Y] |  | High | 
RKDRKKTSLGPGGSYQISEHAPEASQP [PEPTIDE2] | Pro-apoptotic (anti-angiogenic) |  | 
DIGNGQRKDRKKTSLGPGGSYQISEHA [PEPTIDE5] | Pro-apoptotic (anti-angiogenic) | High | 
DWWALGVLIYEMAAGYPP [PEPTIDE17] | Pro-apoptotic (anti-angiogenic) |  | 
RRAVDWHALERPKGCMGVLAREAPHLEKQPAAGPQRVLPGE [PEPTIDE3] | Pro-apoptotic (anti-angiogenic) |  | 
SHFSEHTALWDRSMKEFLAKAKEDFLKK [PEPTIDE10] | Pro-apoptotic (anti-angiogenic) |  | both pro and anti-apoptotic effect [3]: both pro and anti-apoptotic effect; anti-apoptotic (pro-angiogenic) category [1]: anti-apoptotic (pro-angiogenic)
DNCLAAAALNGVDRRSLQRSARLALEVLERAKR [PEPTIDE12] |  |  | anti-apoptotic (pro-angiogenic) category [1]: anti-apoptotic (pro-angiogenic)
STDPAVFTDLASVDNSEFQQLLNQG [PEPTIDE25] |  |  | apoptosis in U87-MG cells (in words) (U87-MG cells): very low apoptosis
LNGVDRRSLQRSARLALEVLERAK [PEPTIDE11] | Pro-apoptotic (anti-angiogenic) | High | both pro and anti-apoptotic effect [3]: both pro and anti-apoptotic effect; anti-apoptotic (pro-angiogenic) category [1]: anti-apoptotic (pro-angiogenic)
VKKRDLEQAISQRIQTNNNPFQVPIEEQRGDYDLNAVR [PEPTIDE8] | Pro-apoptotic (anti-angiogenic) | Moderate | both pro and anti-apoptotic effect [3]: both pro and anti-apoptotic effect; anti-apoptotic (pro-angiogenic) category [1]: anti-apoptotic (pro-angiogenic)
PLIFPAEPAQASGPYVEIIEQPKQ [PEPTIDE14] | Pro-apoptotic (anti-angiogenic) | High | 
VKKRDLEQAISQRIQTNNN [PEPTIDE18] | Pro-apoptotic (anti-angiogenic) |  | 
REERPPTLSASFRTMAEFMDYTSSQCG [PEPTIDE1] | Pro-apoptotic (anti-angiogenic) |  | 
VTVGSNDLTKKTHVVAVDSGQSVDLVFPV [PEPTIDE4] | Pro-apoptotic (anti-angiogenic) |  | both pro and anti-apoptotic effect [3]: both pro and anti-apoptotic effect; anti-apoptotic (pro-angiogenic) category [1]: anti-apoptotic (pro-angiogenic)
